Assay results taken from patent publication US20120027905A1, “POLYENE ANTIFUNGAL COMPOSITIONS” (DSM IP ASSETS B.V., priority 2009, published 2012).

Tests used:
[1] = tested on: Penicillium italicum (ATCC 36041); assay: Antifungal efficacy of natamycin/thickener compositions on wounded oranges (dip treatment); assay type: in vivo; conditions: after 23 days of storage at room temperature; 0.2% (w/v) thickening agent, 1000 μg/ml natamycin; dipped one minute, P. italicum
Procedure: In a further experiment the antifungal activity of antimicrobial compositions comprising 1000 μg/ml natamycin and 0.2% (w/v) of the thickening agents described above was examined on oranges. The oranges were obtained from a local retailer in The Netherlands. The oranges were treated with spores of the mould Penicillium italicum (ATCC 36041). The mould spores were obtained using well-known methods. The oranges were injured according to the method described by Lapere de Bellaire and Dubois (see Plant disease 81:1378-1383, ([…])). Oranges were wounded three times using a cork borer followed by contamination per wound with 5 μl of a P. italicum spore suspension containing 10^6 spores/ml. After incubation for 1 hour at room temperature, the oranges were dipped for one minute into the freshly prepared antimicrobial compositions, dripped off and dried to the air. The experiment was executed in ninefold. The oranges were stored for 23 days under the conditions as described above and were judged visually on mould development.

[2] = tested on: Botrytis cinerea (ATCC 12481); assay: Antifungal efficacy of natamycin/thickener compositions on strawberries; assay type: in vivo; conditions: after 6 days of storage at room temperature; 0.6% (w/v) thickening agent, 1000 μg/ml natamycin; B. cinerea
Procedure: In this experiment the antifungal activity of antimicrobial compositions comprising natamycin and the above-mentioned thickening agents was examined on strawberries. Compositions containing thickening agents and the antifungal agent natamycin were prepared as described in Example 1. The compositions comprised a final concentration of 0.6% (w/v) thickening agent and 1000 μg/ml natamycin. Fresh untreated strawberries from a local retailer in The Netherlands were artificially contaminated with 5 μl of a freshly prepared concentrated suspension of spores (10^6 spores/ml) of the mould species Botrytis cinerea (ATCC 12481). The mould spores were prepared using well-known methods. One hour after contamination the strawberries were dipped for one minute into the freshly prepared antimicrobial compositions, dripped off and dried to the air. The experiment was executed in ninefold. The strawberries were stored for 6 days under the conditions as described in Example 1 and were judged visually on mould development.

[3] = cited from earlier work
[4] = tested on: Aspergillus ochraceus (ATCC 60532); assay: Antifungal efficacy of natamycin/thickener compositions on fresh coffee beans; assay type: in vivo; conditions: after 4 days of storage at room temperature; 0.6% (w/v) thickening agent, 1000 μg/ml natamycin; A. ochraceus
Procedure: In this experiment the antifungal activity of the antimicrobial compositions comprising natamycin and the above-mentioned thickening agents was examined on fresh coffee beans. Compositions containing thickening agents and the antifungal agent natamycin were prepared as described in Example 1. The compositions comprised a final concentration of 0.6% (w/v) thickening agent and 1000 μg/ml natamycin. Fresh untreated coffee beans from a local retailer in The Netherlands were artificially contaminated with 5 μl of a freshly prepared concentrated suspension of spores (10^6 spores/mil) of the mould Aspergillus ochraceus (ATCC 60532). The mould spores were prepared using well-known methods. One hour after contamination the coffee beans were dipped for one minute into the freshly prepared antimicrobial compositions, dripped off and dried to the air. The experiment was executed in ninefold. The coffee beans were stored for 4 days under the conditions as described in Example 1 and were judged visually on mould development.

most fungi = conditions: for most fungi; cited from earlier work

Compound: C[C@@H]1C/C=C/C=C/C=C/C=C/[C@H](O[C@@H]2O[C@H](C)[C@@H](O)[C@H](N)[C@@H]2O)C[C@@H]2O[C@](O)(C[C@@H](O)C[C@H]3O[C@@H]3/C=C/C(=O)O1)C[C@H](O)[C@H]2C(=O)O [Natamycin, natamycin]
- Moulded orange wounds (total amount of wounds is 9) [1]: 9
- Moulded strawberries of the total of 9 [2]: 6
- solubility in water [3]: 30 to 50 µg/mL
- Moulded coffee beans of the total of 9 [4]: 9
- MIC (Minimal Inhibitory Concentration) (most fungi): less than 10 mg/l
